The values that follow come from patent US8337828B2, “Use of thymosin alpha 1, alone or in combination with PTX3 or ganciclovir, for the treatment of cytomegalovirus infection” (priority 2006, dated 2012).

Assay [1] deals with methylcholanthrene-induced fibrosarcoma. The settings on record: mouse, in vivo; cited from earlier work.
Assay [2] relates to CD11b+DC or pDC. In words: Cytokine production by MCMV-pulsed DC subsets (ELISA). It is filed as cell-based, BALB/c mice. The settings on record: MCMV-infected. The source says: (§1) Arrow indicates an inducible band. Lane 1, uninfected cells; lane 2, MCMV-infected; lane 3, Thymosin alpha 1 treated; lane 4, MCMV+Thymosin alpha 1 treated. (FIG. 3b) Cytokine production (pg/ml) by DC subsets treated as above. Bars indicate the standard errors. *P<0.05, cytokine production in MCMV-infected DC vs uninfected DC. **P<0.05, Thymosin alpha 1-treated vs untreated DC. (FIG. 3c) Cytokine production in mice during MCMV infection. Cytokine levels (pg/ml) in culture supernatants of spleen cells from mice with MCMV infection and treated for a week with Thymosin alpha 1 or GCV. *P<0.05, treated vs untreated mice. ND, not done.
DC subset generation. DC were obtained by culturing 10^6/ml BALB/c bone marrow cells in Iscove's modified medium, containing 10% filtered bovine serum, 50 μM 2-mercaptoethanol, sodium pyruvate (1 mM), 2 mM L-glutamine, HEPES (10 mM), and 50 μg/ml gentamycin in the presence of 150 U/ml mouse rGM-CSF (Sigma) and 75 U/ml rIL-4 (R&D Systems) for 7 days to obtain CD11b+DC or 200 ng/ml FLT3-L (Immunex Corporation, Seattle, Wash.) for 9 days to obtain pDC. Final maturation was accomplished by the addition of 1 μg/ml LPS or 2 μg/ml cytosine phosphorothioate-guanine oligodeoxynucleotide (CpG-B ODN 1668) (Coley Pharmaceutical Group, Wellesley, Mass.) for additional 24 h to CD11b+DC or pDC, respectively (Blood 2003; 102: 3807-344; 3814) CD11b+DC were discriminated on CD11chigh expression and were distinctly composed of CD8a+DC and CD11b+DC. pDC were defined as CD11clow, Ly6C+, CD8a+/− cells. Photographs were taken using a high Resolution Microscopy Color Camera AxioCam, using the AxioVision Software Rel. […]
Quantification of cytokines by ELISA and ELISPOT assays. The levels of cytokines in the culture supernatants of mitogen-stimulated spleen cells (48 h stimulation with 10 μg/ml ConA) or MCMV-pulsed DC (24 h) were determined by ELISA (R&D Systems and PBL, Biomedical Lab, Milan, Italy). […] Results are expressed as the mean number of cytokine-producing cells (±SE) per 10^5 cells, calculated using replicates of serial 2-fold dilutions of cells.
(In general: An ELISA detects its analyte on a solid surface through an enzyme-linked reagent.)

For assay [3], the system named is human non-small cell lung cancer ("NSCLC") cells. The settings on record: subcutaneous administration; cited from earlier work.
The subject of assay [4] is spleen cells. In words: Cytokine levels in culture supernatants of spleen cells from MCMV-infected mice (ELISA). The class given is in vivo.
Source text: as §1
Viral load (FIG. 4a) and cytokine production (FIG. 4b) in C57BL6, TLR4−/−, TLR9−/− and MyD88−/− mice infected with 5×10^5 PFU of MCMV and treated with 200 μg/kg Tα1 for a week. Virus titers, expressed as log 10, were quantified on MEF cells by standard plaque assay on infected tissues removed a week after infection and treatment. Cytokine (pg/ml) levels in culture supernatants of spleen cells were determined by ELISA assay. Bars indicate the standard errors. *P<0.05, Tα1-treated vs untreated mice. Results are representative of 3 independent experiments.
BALB/c or C57BL6 mice were infected with 10^5 or 5×10^5 PFU of MCMV, respectively. Virus titers, expressed as log 10, were quantified on MEF cells by standard plaque assay on lung tissues removed 7 days after the infection. Tα1 (200 μg/kg/daily for a week) and/or GCV (40 mg/kg, three times a week) were administered beginning the day of the infection. Cytokine (pg/ml) levels in culture supernatants of spleen cells (7 days) were determined by ELISA assay. Bars indicate the standard errors. *P<0.05, treated vs untreated mice. Results are representative of 3 independent experiments.
Quantification of cytokines by ELISA and ELISPOT assays. The levels of cytokines in the culture supernatants of mitogen-stimulated spleen cells (48 h stimulation with 10 μg/ml ConA) or MCMV-pulsed DC (24 h) were determined by ELISA (R&D Systems and PBL, Biomedical Lab, Milan, Italy). The detection limits (pg/ml) of the assays were <16 for IL-12 p70, <10 for IFN-., <3 for IL-10 and <10 for IFN-a. IFN-.-producing NK cells were enumerated by ELISPOT assay on purified NK (Virus Res. 2003; 98:17-467 25). Results are expressed as the mean number of cytokine-producing cells (±SE) per 10^5 cells, calculated using replicates of serial 2-fold dilutions of cells.

In assay [5] the test system is IRF7. The assay is described as follows: Immunoblot analysis of nuclear IRF7 in DC subsets. It is filed as cell-based, BALB/c mice. The settings on record: pDC, 50 μg/ml, alone or in combination with virus. Here is the method:
(FIG. 3a) CD11b+DC or pDC were generated from bone marrow of BALB/c mice, infected with MCMV and assessed for morphology by light microscopy and viral replication by real-time PCR of MCMV gB transcripts expression (both at 48 h) or for IRF7 nuclear expression by immunobloting with anti-IRF7 (2 h later). Cells were exposed (+) or not (−) to 50 μg/ml Thymosin alpha 1 for 2 h at 37° C. before infection. − represents uninfected cells. The results shown represent one representative experiment out of 3.
Immunoblot analysis of IRF7. DC were exposed for […] 50 μg/ml Thymosin alpha 1 or 10^5 PFU MCMV, either alone or in combination. Nuclear extracts were prepared with NE-PER nuclear and cytoplasmic extraction reagents (Pierce, Celbio S.r.l., Milan, Italy) and the protein concentration of the nuclear extracts was determined with a BCA-200 protein assay kit (Pierce) following the manufacture's instructions. Nuclear content of IRF7 was determined by Western blot using rabbit anti-IRF7 (H246) antibody and bovine anti-rabbit-horseradish peroxidase (Santa Cruz Biotechnology). Visualization was performed with the ECL Western blotting analysis system from Amersham and Kodak Biomax films.

The mark [6] stands for this setting: BALB/c mice with MCMV infection, particularly in the first weeks.

Ends that are not written are not given here.

Turning to “Ac-Ser-Asp-Ala-Ala-Val-Asp-Thr-Ser-Ser-Glu -Ile-Thr-Thr-Lys-Asp-Leu-Lys-Glu-Lys-Lys-Glu-Val-Glu-Glu-Ala-Glu-Asn-O (Ac-SDAAVDTSSEITTKDLKEKKEVEEAEN) [Thymosin alpha 1, acidic peptide present in thymus extract with immunoregulatory properties]”, in assay [1], the pulmonary metastases entry is “reduced”. The “production of IFN-a” value in assay [2] (CD11b+DC) is “slightly promoted”. Besides, in assay [2] (pDC pre-treated), the “production of IFN-a” value was “greatly increased” and the “production of IL-12p70” value was “not affecting”. In addition, the tumor volume result in assay [3] was “significantly decreased tumor volume”. Besides, the IL-10 production entry in assay [4] (BALB/c mice with MCMV infection) is “dramatically increased”. In addition, in assay [4] (setting [6]), the IFN-. production result is listed as “significantly increased” and the IFN-a production entry is reported as “significantly increased”. Moreover, the IL-12p70 production entry in assay [4] (BALB/c mice with MCMV infection, soon after treatment, declining thereafter) is given as “slightly increased”. Further, the “levels of IFN-α, IL-12p70 and IFN-. in supernatants of splenocytes” value in assay [4] (C57BL6 and TLR4-/- mice, 200 μg/kg for a week) is on record as “significantly increased”. Further, the “nuclear IRF7 expression (translocation)” value in assay [5] is “translocation of IRF7”.
